Data from patent US7713923B2, “Self-assembling peptides incorporating modifications and methods of use thereof” (Massachusetts Institute of Technology, priority 2003, dated 2010).

Legend:
[1] = tested on: human aortic endothelial cells (HAEC); assay: NO release determination (Griess method); format: cell-based; conditions: nitrite in culture supernatant; RAD16-I 100%, others 9:1 blend
Method: NO release determination. Nitric oxide (NO) release was estimated by measuring nitrites (NOx) by the Griess method. Briefly, the media was replaced after the third day of culture by new media without fetal bovine serum (FBS) or ascorbic acid. The next day, the media was used to analyze NO release using a commercially available kit (482702, Calbiochem, CA) following the manufacturer instructions. Each condition was tested in triplicate.

[2] = Circular dichroism (secondary structure); format: physicochemical; conditions: 25 μM peptide in water, room temperature, 195-250 nm
Method: Circular dichroism (DC). CD spectra were gathered on an Aviv model 202 spectropolarimeter. Samples were prepared by diluting stock peptide solutions in water (0.5%) to a working concentration of 25 μM. Samples were analysed at room temperature in a quartz cuvette with a path length of 0.3 cm and in the wavelength range 195-250 nm.
Circular dichroism. CD spectra were obtained for each peptide sequence to assess its secondary structure. The secondary structure identifies ordered structures within a polypeptide such as α-helices and β-sheets. […] (Havel, 1996).

[3] = tested on: human aortic endothelial cells (HAEC); assay: HAEC monolayer formation on peptide scaffolds; format: cell-based; parameters: key to HAEC monolayer formation, peptide content 100% / HAEC monolayer formation, Blending (9:1): +: Score for optimal monolayer formation and cell survival; −: Score for poor or none monolayer formation and cell survival
Method: Endothelial cell culture system. Peptide scaffolds (0.5% w/v) were prepared at 100% peptide sequence for RAD16-I or blended with RAD16-I at a radio of 9:1 (RAD16-I: peptide sequence, on a volume/volume basis) for the three other cases (YIG, RYV, and TAG). Each solution was filtered (0.2 μm, Acrodysc filters, 4192, PALL, MI), loaded (30 μl) on top of a cell culture chamber insert (10 mm diameter, 136935, Nalge Nunc International, IL), and allowed to form a layer (average thickness=600 μm). Phosphate Buffer Saline (PBS) (600 μl) was added at the bottom of the well to induce hydrogel formation, and the system was incubated at room temperature for 30 min. PBS was replaced with culture medium, which was then replaced with fresh medium. The scaffolds were incubated for 1 hour with endothelial cell growth media (EGM-2, Cambrex, MD) in a cell culture incubator at 37° C. with 5% CO2.
(§1) Meanwhile, human aortic endothelial cells (HAEC) (CC-2535, Cambrex, MD) that had been maintained under standard culture conditions (passage 5-6) were harvested at 80% confluence using trypsin and loaded on top of the preformed peptide scaffolds at a cell density of 8×10^4 cells/cm^2 and cultured in the cell culture incubator at 37° C. with 5% CO2. Cell attachment assays were performed one hour after the initial cell loading. To perform the assays, the covering media was removed, and unattached cells were counted on a hematocytometer. Cell counting was performed by mechanically disrupting the scaffold containing cells by pipetting up and down and then counting cells on a hematocytometer after performing Trypan blue (T 9906, Sigma, MO) exclusion assay staining to assess cell viability. In some experiments, for comparison, EC were cultured on inserts coated with Matrigel or collagen (1.5 mg/ml, i.e. 0.15%) according to standard protocols.
In a first experiment, we tested the ability of HAEC to attach and form a monolayer when seeded on various peptide scaffolds generated by self-assembly of the peptides following addition of PBS to a 0.5%(w/v) solution of the peptide in water. […] HAEC cultured in the presence of scaffolds generated from peptides incorporating the other biologically active peptide motifs either died or formed isolated clusters (FIGS. 9A-9G).
We therefore decided to blend the peptides incorporating biologically active motifs with the prototypic RAD16-I sequence in order to reduce the overall concentration of the biologically active motif presented to cells. We selected a volume/volume ratio of 9:1 (RAD16-I:modified peptide sequence comprising biologically active peptide motif, where peptides were dissolved at equal concentrations on a w/w basis) and generated peptide scaffolds from solutions in which the unmodified and modified peptides were present in this ratio.

[4] = tested on: neurons; conditions: neurons grown on surface; cited from earlier work
[5] = tested on: human aortic endothelial cells (HAEC); assay: HAEC proliferation and competition assays with soluble peptide motifs; format: cell-based; conditions: 100% RAD16-I, no soluble peptide, improved cell isolation
Method: as §1
Competition assays with free soluble peptide sequences. HAEC were cultured as described on peptide scaffolds in cell culture inserts as described above. For each scaffold, the corresponding soluble motif sequence, or one of the other motifs not present in the scaffold, was added to the media of HAEC cultures at a final concentration of 400 μg/ml. Half of the media was changed every other day. […] The next day, cell numbers were evaluated as described above. […]

[6] = Gel formation by visual observation; format: physicochemical; conditions: 1% solution, standing overnight at room temperature, no PBS
Method: The peptides used in the examples are based on the self-assembling peptide RAD16-I. The peptide was modified to include a variety of peptide motifs previously identified as mediating various biological activities. Physicochemical and structural properties of the peptides were assessed using a variety of techniques. Peptide solubility in aqueous solution was tested. The ability of the peptides to self-assemble into higher order structures was examined. In particular, the ability of the peptides to form various secondary structures (e.g., β-sheet) was determined using circular dichroism. The ability of the peptides to self-assemble into nanofibers was evaluated using atomic force microscopy (AFM). Gel formation was assessed by visual observation and rheology.
Gel formation. Each peptide solution at 1% was used to assess hydrogel formation. […] For all the soluble peptides, gel formation was readily observed upon the addition of equal volumes of phosphate buffered saline (PBS).

[7] = tested on: Liver progenitor cells; conditions: encapsulated cells; cited from earlier work

Secondary structure (CD) [2]: β-sheet
Increased viscosity by visual inspection [6]: Increased viscosity was observed
SMILES: CC(=O)N[C@@H](CCCNC(=N)N)C(=O)N[C@@H](C)C(=O)N[C@@H](CC(=O)O)C(=O)N[C@@H](C)C(=O)N[C@@H](CCCNC(=N)N)C(=O)N[C@@H](C)C(=O)N[C@@H](CC(=O)O)C(=O)N[C@@H](C)C(=O)N[C@@H](CCCNC(=N)N)C(=O)N[C@@H](C)C(=O)N[C@@H](CC(=O)O)C(=O)N[C@@H](C)C(=O)N[C@@H](CCCNC(=N)N)C(=O)N[C@@H](C)C(=O)N[C@@H](CC(=O)O)C(=O)N[C@@H](C)C(N)=O [RAD16-I, AcN-(RADA)4-CONH2]
nitric oxide (NO) release by HAEC [1]: promote NO release
HAEC monolayer formation, scaffold of 100% peptide ([3]; 0.5% (w/v) peptide, no blending): monolayer formation was observed
HAEC monolayer formation and cobblestone morphology on gel systems ([3]; after 3 days in culture): less than on blended scaffolds or on Matrigel or collagen-I
HAEC monolayer formation, peptide content 100% ([3]; scaffold of 100% peptide, 0.5% (w/v)): +¶
neurite outgrowth and synapse formation on peptide structure [4]: able to serve as a substrate for neurite outgrowth and formation of functionally active synapses
HAEC proliferation lower than on scaffolds made from peptide blends [5]: 2-2.5 fold
hepatocyte marker expression [7]: expressed markers indicative of hepatocyte phenotype
